How the values were obtained:
Test in all cases: relative viability (nuclei count vs DMSO), 5 days (fraction); higher = more cells survive
Sulindac + Tozasertib = compound: CC1=C(CC(=O)O)c2cc(F)ccc2/C1=C\c1ccc([S+](C)[O-])cc1 [Sulindac] + Cc1cc(Nc2cc(N3CCN(C)CC3)nc(Sc3ccc(NC(=O)C4CC4)cc3)n2)n[nH]1 [Tozasertib] (partner 0.1 µM)
Summary of the method: (§1)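 Lung cancer cell lines were pin-tool dosed in 1536-well plates on the day after seeding, with either a lone drug or a fixed anchor-drug dose plus five library-drug doses (not always all listed) in √10 steps. Nuclei were counted on 4× images after 5 days. Relative viability is the ratio of treated-well to vehicle-well nuclei counts, with each value a median of duplicate plates.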

[1] = compound: CN[C@@H]1C[C@H]2O[C@@](C)([C@@H]1OC)n1c3ccccc3c3c4c(c5c6ccccc6n2c5c31)C(=O)NC4 [Staurosporine] + CC(=O)Nc1cccc(-n2c(=O)n(C3CC3)c(=O)c3c(Nc4ccc(I)cc4F)n(C)c(=O)c(C)c32)c1 [Trametinib] (partner 0.02 µM)
Summary of the method: as §1

[2] = compound: O=c1[nH]cc(F)c(=O)[nH]1 [5-Fluorouracil] + Cc1nc(Nc2ncc(C(=O)Nc3c(C)cccc3Cl)s2)cc(N2CCN(CCO)CC2)n1 [Dasatinib] (partner 0.075 µM)
Summary of the method: as §1

[3] = compound: CN[C@@H]1C[C@H]2O[C@@](C)([C@@H]1OC)n1c3ccccc3c3c4c(c5c6ccccc6n2c5c31)C(=O)NC4 [Staurosporine] + Nc1nc2[nH]cc(CCc3ccc(C(=O)N[C@@H](CCC(=O)O)C(=O)O)cc3)c2c(=O)[nH]1 [Pemetrexed] (partner 0.2 µM)
Summary of the method: as §1

Row | Cell Line | relative viability (Sulindac + Tozasertib; first compound 0.08 µM) | relative viability (Sulindac + Tozasertib; first compound 0.253 µM) | relative viability (Sulindac + Tozasertib; first compound 0.8 µM) | relative viability (Sulindac + Tozasertib; first compound 2.53 µM) | relative viability (Sulindac + Tozasertib; first compound 8 µM) | relative viability ([1]; first compound 0.005 µM) | relative viability ([1]; first compound 0.05 µM) | relative viability ([1]; first compound 0.1581 µM) | relative viability ([1]; first compound 0.5 µM) | relative viability ([2]; first compound 0.02 µM) | relative viability ([2]; first compound 0.2 µM) | relative viability ([2]; first compound 0.6325 µM) | relative viability ([2]; first compound 2 µM) | relative viability ([3]; first compound 0.005 µM) | relative viability ([3]; first compound 0.05 µM) | relative viability ([3]; first compound 0.1581 µM) | relative viability ([3]; first compound 0.5 µM) | relative viability ([1]; first compound 0.01581 µM) | relative viability ([3]; first compound 0.01581 µM)
1 | NCI-H1793 | 0.283 | 0.283 | 0.349 | 0.33 | 0.336 | 0.472 | 0.359 | 0.168 | 0.169 | 0.378 | 0.413 | 0.368 | 0.313 | 0.865 | 0.371 | 0.154 | 0.125 |  | 
2 | NCI-H1915 | 0.505 | 0.451 |  | 0.423 | 0.416 | 0.252 | 0.0978 | 0.0599 | 0.0612 | 0.305 | 0.31 | 0.303 | 0.266 | 0.486 | 0.219 | 0.15 | 0.0886 | 0.139 | 0.231
3 | NCI-H1944 | 0.258 | 0.263 | 0.254 | 0.247 | 0.259 | 0.373 | 0.356 | 0.252 | 0.195 | 0.21 | 0.225 | 0.138 | 0.127 | 0.626 | 0.26 | 0.164 | 0.185 | 0.331 | 0.311
4 | NCI-H1975 | 0.888 | 0.825 | 0.927 | 0.722 | 1.15 | 0.18 | 0.139 | 0.121 | 0.1 | 0.363 | 0.387 | 0.307 | 0.231 | 0.246 | 0.184 | 0.128 | 0.118 | 0.141 | 0.185
5 | NCI-H1993 | 0.597 | 0.629 | 0.514 | 0.651 | 0.598 | 0.45 | 0.51 | 0.36 | 0.278 | 0.581 | 0.566 | 0.503 | 0.487 | 0.631 | 0.539 | 0.332 | 0.267 | 0.453 | 0.428
6 | NCI-H2009 | 0.883 | 0.809 | 0.712 | 0.707 | 0.99 | 0.204 | 0.149 | 0.087 | 0.0761 | 0.226 | 0.322 | 0.248 | 0.271 | 0.895 | 0.222 | 0.156 | 0.112 | 0.143 | 0.389
7 | NCI-H2023 | 0.558 | 0.365 | 0.322 | 0.3 | 0.41 | 0.257 | 0.145 | 0.0801 | 0.0607 | 0.542 | 0.185 | 0.102 | 0.0866 | 0.183 | 0.0933 | 0.0756 | 0.0692 | 0.17 | 0.154
8 | NCI-H2085 | 0.789 | 0.842 | 0.829 | 0.797 | 0.807 | 0.313 | 0.293 | 0.215 | 0.197 | 0.192 | 0.218 | 0.21 | 0.301 | 0.635 | 0.429 | 0.206 | 0.242 | 0.208 | 0.307
9 | NCI-H2087 | 0.237 | 0.284 |  | 0.293 | 0.233 | 0.167 | 0.0865 | 0.0713 | 0.0829 | 0.917 | 0.835 | 0.532 | 0.483 | 0.548 | 0.429 | 0.171 | 0.117 | 0.142 | 0.531
10 | NCI-H2126 | 0.887 | 0.905 | 0.895 | 0.754 | 0.934 | 0.592 | 0.375 | 0.339 | 0.345 | 0.552 | 0.315 | 0.244 | 0.212 | 0.64 | 0.4 | 0.279 | 0.211 | 0.373 | 0.262
11 | NCI-H2170 | 0.791 | 0.928 | 0.797 | 0.675 | 0.719 |  | 0.904 | 0.63 | 0.379 | 0.566 | 0.53 | 0.393 | 0.28 | 0.247 | 0.243 | 0.101 | 0.173 |  | 
12 | NCI-H2228 | 0.222 | 0.248 | 0.242 | 0.294 | 0.262 | 0.332 | 0.169 | 0.0671 | 0.0687 | 0.562 | 0.457 | 0.349 | 0.268 | 0.288 | 0.192 |  | 0.116 | 0.089 | 0.185
13 | NCI-H2342 | 0.447 | 0.492 | 0.513 | 0.397 | 0.583 | 0.948 | 0.499 | 0.417 | 0.363 | 0.305 | 0.343 | 0.301 | 0.293 | 0.773 | 0.433 | 0.315 | 0.319 | 0.675 | 0.746
14 | NCI-H2347 | 0.522 | 0.615 |  | 0.528 | 0.598 | 0.259 | 0.174 | 0.221 | 0.186 | 0.334 | 0.328 | 0.295 | 0.224 | 0.36 | 0.32 | 0.329 | 0.291 | 0.248 | 0.321
15 | NCI-H2405 | 0.733 | 0.795 | 0.684 | 0.793 | 0.751 | 0.355 | 0.148 | 0.0927 | 0.0684 | 0.217 | 0.231 | 0.197 | 0.224 | 0.417 | 0.14 | 0.0988 | 0.1 | 0.161 | 0.174
16 | NCI-H3122 | 0.4 | 0.469 | 0.377 | 0.352 | 0.466 | 0.368 | 0.648 |  | 0.221 | 0.917 | 0.76 | 0.32 | 0.205 | 0.183 | 0.177 | 0.167 | 0.105 |  | 
17 | PC-3 [JPC-3] | 0.982 | 0.984 | 0.828 | 0.868 | 0.878 | 0.704 | 0.453 | 0.391 | 0.332 | 0.979 | 1.08 | 0.946 | 0.709 | 0.975 | 0.516 | 0.389 | 0.347 | 0.543 | 0.444
18 | PC-14 | 0.605 | 0.659 | 0.538 | 0.575 | 0.685 | 0.483 | 0.0553 | 0.0467 | 0.0475 | 0.247 | 0.268 | 0.274 | 0.188 | 0.159 | 0.0585 | 0.0487 | 0.048 | 0.064 | 0.131
19 | RERF-LC-KJ | 0.569 | 0.56 | 0.521 | 0.307 | 0.568 | 0.795 |  | 0.328 | 0.207 | 0.908 | 1.01 | 0.777 | 0.571 | 0.501 | 0.375 | 0.205 | 0.202 | 0.604 | 0.423
20 | SK-LU-1 | 0.286 | 0.347 | 0.342 | 0.288 | 0.406 | 0.253 | 0.172 | 0.187 | 0.12 | 0.189 | 0.182 | 0.195 | 0.166 | 0.416 | 0.167 | 0.163 | 0.176 | 0.15 | 0.182
21 | SK-MES-1 | 1.07 | 1.01 | 0.848 | 0.956 | 1.09 | 0.333 | 0.265 | 0.211 | 0.139 | 0.293 | 0.257 | 0.227 | 0.218 | 0.543 |  | 0.145 | 0.141 | 0.281 | 0.277
22 | SW 900 |  | 0.516 |  | 0.462 | 0.585 | 0.494 | 0.444 | 0.128 | 0.164 | 0.507 | 0.539 | 0.548 | 0.577 | 0.404 | 0.296 | 0.161 | 0.115 | 0.366 | 0.356
23 | SW 1573 | 0.183 | 0.144 |  | 0.172 | 0.163 | 0.137 | 0.055 | 0.047 | 0.033 | 0.58 | 0.402 | 0.472 | 0.259 | 0.297 | 0.204 | 0.0927 | 0.0611 | 0.0903 | 0.34

From the supplement of paper PMC10307832
